In PubChem BioAssay AID686969 (The Scripps Research Institute Molecular Screening Center, 2013):
The source made the active and inactive calls. How the calls were made is not given here.

Molecular target: methionyl-tRNA synthetase (Trypanosoma brucei)
Test: inhibition of trypanosomal methionyl-tRNA synthetase – biochemical, fluorescence polarization, dose response, orthogonal assay for T. brucei MetRS inhibitor project, late-stage follow-up (AID 686969)

IC50 | Structure (SMILES)
1910 nM | CN(CC(=O)Nc1ccc(Cl)cc1)C(=O)c1ccc(-n2cncn2)c([N+](=O)[O-])c1
1790 nM | O=C(NCc1nc2ccccc2[nH]1)C1=C[C@H](c2csc3ccccc23)C[C@H](OCCCCO)O1
7410 nM | O=C(NNC(=O)c1ccc(-n2cncn2)c([N+](=O)[O-])c1)c1ccc(Cl)cc1
933 nM | Clc1ccc(-c2nnc(SCc3nc4ccccc4[nH]3)o2)c(Cl)c1
331 nM | O=C(NCCc1nc2ccccc2[nH]1)c1ccc(Cl)c([N+](=O)[O-])c1
1310 nM | O=C(CC=NOCc1ccc([N+](=O)[O-])cc1)Nc1ccc(Br)cc1
4650 nM | O=C(NCc1nc2ccccc2[nH]1)C1=C[C@@H](c2csc3ccccc23)C[C@@H](OCCCCO)O1
4270 nM | CCCCCCCCCC1NC(C(=O)O)Cc2c1[nH]c1ccccc21 (stereo not drawn)
6220 nM | O=C(NCc1nc2ccccc2[nH]1)C1=C[C@H](c2ccc3c(c2)OCO3)C[C@H](OCCCCO)O1
926 nM | COc1ccc2[nH]c3nc(SCC(=O)Nc4ccc5c(c4)OCO5)nnc3c2c1
inactive | CCO[C@@H]1OC(C(=O)NCc2nc3ccccc3[nH]2)=C[C@H](c2ccc(Br)cc2)[C@H]1CCCO
5730 nM | Cc1ccc(NC(=O)CN(C)C(=O)CCSc2ccc(F)cc2)cc1
3520 nM | O=C(NCc1nc2ccccc2[nH]1)C1=C[C@H](c2ccc(Br)cc2)C[C@H](OCc2ccc(CO)cc2)O1
5390 nM | CC(C)(C)[C@H]1C=C(C(=O)NCc2nc3ccccc3[nH]2)O[C@@H](OCc2ccc(CO)cc2)C1
2030 nM | O=C(NCc1nc2ccccc2[nH]1)C1=C[C@@H](c2ccc3c(c2)OCO3)C[C@@H](OCCCCO)O1
2970 nM | O=C(C[C@H]1C(=O)N(Cc2ccccc2)C[C@@H]1c1ccc(Br)cc1)Nc1ccc(Br)cc1
7550 nM | COc1ccc(OCC(O)CNC(=O)Nc2ccc(Cl)cc2)cc1 (stereo not drawn)
3910 nM | O=C(CN1CCSC1=NCc1ccccc1)c1ccc(Cl)c(Cl)c1
9230 nM | Clc1ccc(OCCSCc2nc3ccccc3[nH]2)cc1
2220 nM | CC(=O)c1c[nH]c(C(=O)NCc2cccc(C(F)(F)F)c2)c1
75.1 nM | COc1cccc(NC(=O)CSc2nnc3c(n2)[nH]c2ccc(C)cc23)c1
4270 nM | Brc1cnc2nc(SCc3nc4ccccc4[nH]3)[nH]c2c1
8370 nM | O=C(CCC(=O)Nc1cccc([N+](=O)[O-])c1)NN=Cc1cccs1
2870 nM | O=C(CC=NOCc1ccc([N+](=O)[O-])cc1)Nc1ccc(Cl)cc1
inactive | O=C1CC(SCc2nc3ccccc3[nH]2)C(=O)N1c1cccc(Cl)c1 (stereo not drawn)
1140 nM | O=C(NCc1nc2ccccc2[nH]1)C1=C[C@@H](c2ccc(Br)cc2)C[C@@H](OCCCCO)O1
6030 nM | O=C(CC(=O)Nc1cccc(Cl)c1)NN=Cc1ccccc1

IC50 | Structure (SMILES)
inactive | O=C(NCc1nc2ccccc2[nH]1)C1=C[C@H](c2ccccc2)C[C@H](OCc2ccc(CO)cc2)O1
4590 nM | COc1ccccc1-n1c(SCC(=O)Nc2ccc(Cl)cc2)nc(O)c(Cc2ccccc2)c1=O
2800 nM | O=C(Cn1cnc2ccccc21)Nc1cccc([N+](=O)[O-])c1
600 nM | COc1ccccc1NS(=O)(=O)c1cccc(NC(=O)Nc2ccccc2)c1
2360 nM | CC(CC(=O)Nc1cccc(Br)c1)=NNC(=O)c1ccc(O)cc1O
1490 nM | CC(C)OCCCN1CC(=O)N2C(c3cccc([N+](=O)[O-])c3)c3[nH]c4ccccc4c3C[C@H]2C1=O (stereo partly drawn)
2660 nM | O=C(NCc1nc2ccccc2[nH]1)C1=C[C@@H](C2CC2)C[C@@H](OCc2ccc(CO)cc2)O1
1770 nM | Oc1c(Cl)cc(Cl)cc1CNc1nc2ccccc2[nH]1
2910 nM | O=C(Nc1ccc(F)c(Cl)c1)C1CC(=O)n2c(nc3ccccc32)N1 (stereo not drawn)
8120 nM | CC(C)(C)[C@@H]1C=C(C(=O)NCc2nc3ccccc3[nH]2)O[C@H](OCc2ccc(CO)cc2)C1
1490 nM | O=C(NNC(=O)c1cc(-c2ccc(Cl)c(Cl)c2)nc2ccccc12)Nc1ccccc1
5650 nM | O=C(N/C(=C\c1cccnc1)c1nc2ccccc2[nH]1)c1cccc(Br)c1
922 nM | CN(Cc1cc(Cl)cc(Cl)c1)[C@H]1C[C@H]2c3[nH]c4ccccc4c3CCN2C(=O)[C@H]1CO
2030 nM | O=C(NCc1nc2ccccc2[nH]1)C1=C[C@@H](c2ccc(Br)cc2)C[C@@H](OCc2ccc(CO)cc2)O1
8110 nM | O=C(NCc1nc2ccccc2[nH]1)C1=C[C@H](C2CC2)C[C@H](OCc2ccc(CO)cc2)O1
717 nM | CN1CC(=O)N2C(c3cccc([N+](=O)[O-])c3)c3[nH]c4ccccc4c3C[C@H]2C1=O (stereo partly drawn)
292 nM | O=C(Cn1cc(C(=O)C(=O)N2CCOCC2)c2ccccc21)Nc1cccc(C(F)(F)F)c1
2210 nM | O=C(NCc1nc2ccccc2[nH]1)C1=C[C@@H](c2ccccc2)C[C@@H](OCc2ccc(CO)cc2)O1
879 nM | CC(=O)c1ccc(N2CCN(C(=O)CCCn3c(=O)[nH]c4ccc(Br)cc4c3=O)CC2)cc1
3110 nM | O=C(NCc1nc2ccccc2[nH]1)C1=C[C@H](c2ccc(Br)cc2)C[C@H](OCCCCO)O1
inactive | Cc1[nH]c2ccc(Br)cc2c(=O)c1CN1CCCCCC1
7300 nM | CCOC(=O)N1CCC(Nc2c(Nc3ccc(F)cc3)c(=O)c2=O)CC1
9390 nM | CCO[C@H]1OC(C(=O)NCc2nc3ccccc3[nH]2)=C[C@@H](c2ccc(Br)cc2)[C@@H]1CCCO
566 nM | O=C1CC(N(CCc2ccccc2)C(=S)Nc2ccccc2)C(=O)N1c1ccc(Br)cc1 (stereo not drawn)
933 nM | O=C1[C@@H]2Cc3c([nH]c4ccccc34)C(c3cccc([N+](=O)[O-])c3)N2C(=O)CN1CCCO (stereo partly drawn)
439 nM | C[C@H](O)[C@@H]1C(=O)N2CCc3c([nH]c4ccccc34)[C@@H]2C[C@@H]1N(C)Cc1ccc2c(c1)OCO2
